Test results taken from ChEMBL document CHEMBL1201862, “PubChem BioAssay data set” (2004).
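Five compound concentrations were applied to cells in 96-well plates for 48 hours; endpoints were derived by simple linear interpolation of the resulting dose-response curve. GI50 = concentration required for 50% inhibition of growth.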 Activity calls are given as the source filed them. Cut-off read from the data, not from the text of the source: active = GI50 up to about 1.1 µM and inactive = higher.

Experiments:
Experiment in all cases: NCI tumour cell line growth inhibition, 48 h
HCC 2998 = test system: HCC 2998
SK-MEL-28 = test system: SK-MEL-28
SW-620 = test system: SW-620
M14 = test system: M14
NCI-H522 = test system: NCI-H522
LXFL 529 = test system: LXFL 529
SF-268 = test system: SF-268
A549 = test system: A549
SK-MEL-5 = test system: SK-MEL-5
HOP-62 = test system: HOP-62
CAKI-1 = test system: CAKI-1
UACC-257 = test system: UACC-257
OVCAR-5 = test system: OVCAR-5
K562 = test system: K562
IGROV-1 = test system: IGROV-1
SR = test system: SR
PC-3 = test system: PC-3
MCF7 = test system: MCF7
Hs-578T = test system: Hs-578T
MDA-MB-231 = test system: MDA-MB-231

| SMILES | GI50 (HCC 2998) | GI50 (SK-MEL-28) | GI50 (SW-620) | GI50 (M14) | GI50 (NCI-H522) | GI50 (LXFL 529) | GI50 (SF-268) | GI50 (A549) | GI50 (SK-MEL-5) | GI50 (HOP-62) | GI50 (CAKI-1) | GI50 (UACC-257) | GI50 (OVCAR-5) | GI50 (K562) | GI50 (IGROV-1) | GI50 (SR) | GI50 (PC-3) | GI50 (MCF7) | GI50 (Hs-578T) | GI50 (MDA-MB-231) |
| --- | --- | --- | --- | --- | --- | --- | --- | --- | --- | --- | --- | --- | --- | --- | --- | --- | --- | --- | --- | --- |
| COc1ccc(C(=O)C(c2ccc(OC)cc2)C2(O)C(=O)Nc3c(Cl)cc(Cl)cc32)cc1 (centres undefined) | > 10 µM (inactive) | 22.3 µM (inactive) | 17.6 µM (inactive) | 16.9 µM (inactive) | 18.2 µM (inactive) | 15 µM (inactive) | 33.8 µM (inactive) | 24.2 µM (inactive) | 18.5 µM (inactive) | 23.8 µM (inactive) | 19.1 µM (inactive) | 17.3 µM (inactive) | 20.1 µM (inactive) | 16.6 µM (inactive) | – | – | – | – | – | – |
| C/C=C(/I)CBr | 15.9 µM (inactive) | 21 µM (inactive) | 13.6 µM (inactive) | 13.8 µM (inactive) | 2.03 µM (inactive) | 13.7 µM (inactive) | 23.6 µM (inactive) | 24.3 µM (inactive) | 15.5 µM (inactive) | 22.5 µM (inactive) | 1.07 µM (active) | – | > 10 µM (inactive) | 5.15 µM (inactive) | 16 µM (inactive) | – | – | – | – | – |
| CSCSCC(CO)NC(=O)/C=C/c1c(C)nc(O)nc1O (centres undefined) | > 100 µM (inactive) | > 100 µM (inactive) | > 100 µM (inactive) | > 100 µM (inactive) | – | > 100 µM (inactive) | 30.8 µM (inactive) | > 100 µM (inactive) | > 100 µM (inactive) | – | 56.6 µM (inactive) | > 100 µM (inactive) | > 100 µM (inactive) | 39.7 µM (inactive) | – | 56.4 µM (inactive) | – | – | – | – |
| Cc1cc2c(cc1C)[n+]([O-])c(-c1c(Cl)cccc1Cl)c(N)[n+]2[O-] | 25.8 µM (inactive) | 28.2 µM (inactive) | 35.1 µM (inactive) | 33 µM (inactive) | 9.27 µM (inactive) | 31.6 µM (inactive) | 32.9 µM (inactive) | 30.1 µM (inactive) | 20.7 µM (inactive) | 30.5 µM (inactive) | 31 µM (inactive) | 24.6 µM (inactive) | > 100 µM (inactive) | 32 µM (inactive) | 41.3 µM (inactive) | – | – | – | – | – |
| O=C1C=C(c2c(O)ccc3ccccc23)c2cc(O)ccc2C1=O | 18.6 µM (inactive) | 20.7 µM (inactive) | 18.2 µM (inactive) | 16.4 µM (inactive) | – | 6.4 µM (inactive) | 16.3 µM (inactive) | 18.2 µM (inactive) | 15.1 µM (inactive) | 20 µM (inactive) | 19.5 µM (inactive) | 17.9 µM (inactive) | 21.1 µM (inactive) | > 100 µM (inactive) | 13.7 µM (inactive) | 6.59 µM (inactive) | – | – | – | – |
| COc1ccc(/C=C/C(=O)c2c(-c3ccccc3)nn(C)c(=O)c2N2CC2C)cc1 (centres undefined) | 26.6 µM (inactive) | 52.6 µM (inactive) | 26.4 µM (inactive) | 28.8 µM (inactive) | 22.7 µM (inactive) | 25.1 µM (inactive) | 26.8 µM (inactive) | 43.2 µM (inactive) | 29.4 µM (inactive) | 35.6 µM (inactive) | 44.5 µM (inactive) | 42.2 µM (inactive) | 37.6 µM (inactive) | 26.2 µM (inactive) | 59.3 µM (inactive) | – | – | – | – | – |
| O=C(O)C12C=CC(C1)c1ccccc12 (centres undefined) | > 100 µM (inactive) | > 100 µM (inactive) | > 100 µM (inactive) | > 100 µM (inactive) | – | > 100 µM (inactive) | > 100 µM (inactive) | > 100 µM (inactive) | > 100 µM (inactive) | > 100 µM (inactive) | > 100 µM (inactive) | > 100 µM (inactive) | > 100 µM (inactive) | > 100 µM (inactive) | > 100 µM (inactive) | > 100 µM (inactive) | – | – | – | – |
| CCN(CC)CC(C(=O)Nc1c(C)cccc1C)/C(C)=N/NC(N)=S (centres undefined) | > 100 µM (inactive) | > 100 µM (inactive) | > 100 µM (inactive) | > 100 µM (inactive) | > 100 µM (inactive) | > 100 µM (inactive) | > 100 µM (inactive) | > 100 µM (inactive) | > 100 µM (inactive) | > 100 µM (inactive) | – | > 100 µM (inactive) | > 100 µM (inactive) | > 100 µM (inactive) | > 100 µM (inactive) | – | – | – | – | – |
| O=C1OCC2=C1C(c1ccc3c(c1)OCO3)c1cc3c(cc1O2)OCO3 (centres undefined) | 4.42 µM (inactive) | 1.72 µM (inactive) | 0.406 µM (active) | 0.369 µM (active) | 0.262 µM (active) | – | 1.94 µM (inactive) | 0.897 µM (active) | 0.486 µM (active) | 0.851 µM (active) | 0.807 µM (active) | 5.13 µM (inactive) | 7.48 µM (inactive) | 0.269 µM (active) | 0.537 µM (active) | 0.19 µM (active) | 0.59 µM (active) | 0.341 µM (active) | 0.865 µM (active) | 0.813 µM (active) |
| CN(C)Cc1cc(C(C)(C)C)ccc1-c1ccc(C(C)(C)C)cc1CN(C)C | 10.2 µM (inactive) | 41.1 µM (inactive) | > 100 µM (inactive) | 41.6 µM (inactive) | 57.8 µM (inactive) | – | > 100 µM (inactive) | > 100 µM (inactive) | > 100 µM (inactive) | > 100 µM (inactive) | > 100 µM (inactive) | 37.1 µM (inactive) | > 100 µM (inactive) | 40.7 µM (inactive) | > 100 µM (inactive) | > 100 µM (inactive) | 43.7 µM (inactive) | 66.7 µM (inactive) | > 100 µM (inactive) | > 100 µM (inactive) |
| C/C(=C/CNc1ncnc2c1ncn2CCC(=O)O)CO | > 100 µM (inactive) | > 100 µM (inactive) | > 100 µM (inactive) | > 100 µM (inactive) | > 100 µM (inactive) | – | > 100 µM (inactive) | > 100 µM (inactive) | > 100 µM (inactive) | > 100 µM (inactive) | > 100 µM (inactive) | > 100 µM (inactive) | > 100 µM (inactive) | > 100 µM (inactive) | > 100 µM (inactive) | > 100 µM (inactive) | > 100 µM (inactive) | > 100 µM (inactive) | > 100 µM (inactive) | > 100 µM (inactive) |
| CCOC(=O)c1ncn2c1[nH]c(=O)c1ccccc12 | – | > 100 µM (inactive) | > 100 µM (inactive) | > 100 µM (inactive) | > 100 µM (inactive) | > 100 µM (inactive) | > 100 µM (inactive) | > 100 µM (inactive) | > 100 µM (inactive) | – | – | – | > 100 µM (inactive) | > 100 µM (inactive) | > 100 µM (inactive) | > 100 µM (inactive) | – | – | – | – |
| COc1ccc(/C=C(/C)[N+](=O)[O-])cc1 | 1.77 µM (inactive) | 2.65 µM (inactive) | 2.01 µM (inactive) | 3.18 µM (inactive) | 0.292 µM (active) | – | 3.15 µM (inactive) | 4.21 µM (inactive) | 2.48 µM (inactive) | 1.86 µM (inactive) | 2.32 µM (inactive) | 1.5 µM (inactive) | 3.19 µM (inactive) | 2.62 µM (inactive) | 2.13 µM (inactive) | 0.419 µM (active) | 2.16 µM (inactive) | 1.22 µM (inactive) | 9.02 µM (inactive) | 3.24 µM (inactive) |
| O=C1OC(=O)C2C3CCC(O3)C12 (centres undefined) | > 100 µM (inactive) | > 100 µM (inactive) | > 100 µM (inactive) | > 100 µM (inactive) | – | > 100 µM (inactive) | > 100 µM (inactive) | > 100 µM (inactive) | > 100 µM (inactive) | > 100 µM (inactive) | > 100 µM (inactive) | > 100 µM (inactive) | > 100 µM (inactive) | > 100 µM (inactive) | > 100 µM (inactive) | > 100 µM (inactive) | – | – | – | – |
| ClCCCSSCCCCl | 36.1 µM (inactive) | 45 µM (inactive) | 27.7 µM (inactive) | 38.4 µM (inactive) | 25.9 µM (inactive) | – | 39.5 µM (inactive) | 38.6 µM (inactive) | 37.8 µM (inactive) | 38.7 µM (inactive) | 32.2 µM (inactive) | 36.8 µM (inactive) | > 91.6 µM (inactive) | 25.8 µM (inactive) | 33 µM (inactive) | 8.36 µM (inactive) | 24.3 µM (inactive) | 30.3 µM (inactive) | 17.8 µM (inactive) | 35.8 µM (inactive) |
| O=C(c1ccc(Cl)cc1)c1ccc(OCC(=O)N2CCN(c3ccccc3)CC2)cc1 | > 100 µM (inactive) | > 100 µM (inactive) | > 100 µM (inactive) | > 100 µM (inactive) | – | 52.7 µM (inactive) | > 100 µM (inactive) | > 100 µM (inactive) | 41.6 µM (inactive) | > 100 µM (inactive) | > 100 µM (inactive) | 61 µM (inactive) | > 100 µM (inactive) | > 100 µM (inactive) | > 100 µM (inactive) | 84.5 µM (inactive) | – | – | – | – |
| C=C1C(=O)O[C@H]2C[C@@]3(C)[C@H](O)CCC(=C)[C@@H]3[C@@H](OC(C)=O)[C@H]12 | 15.1 µM (inactive) | 20 µM (inactive) | 4.85 µM (inactive) | 5.9 µM (inactive) | 1.73 µM (inactive) | – | 19.2 µM (inactive) | 14.7 µM (inactive) | 12.1 µM (inactive) | 16.4 µM (inactive) | 1.48 µM (inactive) | 15.4 µM (inactive) | 3.27 µM (inactive) | 2.63 µM (inactive) | 14.1 µM (inactive) | 2.22 µM (inactive) | 16.5 µM (inactive) | 1.51 µM (inactive) | 14.3 µM (inactive) | 16.1 µM (inactive) |
| CC1=NN=C(NCCN(C)C)C/C1=C/c1ccccc1Cl | > 100 µM (inactive) | 59.2 µM (inactive) | > 100 µM (inactive) | 39.4 µM (inactive) | – | > 100 µM (inactive) | > 100 µM (inactive) | > 100 µM (inactive) | 48.6 µM (inactive) | > 100 µM (inactive) | 73.5 µM (inactive) | 23.5 µM (inactive) | 79.1 µM (inactive) | – | > 100 µM (inactive) | – | – | – | – | – |
